Format in all cases: functional
Assay [1] concerns Achaea janata. Description: Toxicity against Achaea janata after 24 hr by leaf disk method.
The test system of assay [2] is Achaea janata. As to the kind of experiment: Toxicity against Achaea janata at 1.25 ug/cm2 after 24 hr by leaf disk method.
In assay [3] the test system is Achaea janata. Description: Insecticidal activity against Achaea janata assessed as pupal duration at 4 ug/larva administered through topical application (reference value: 10.3 +/- 0.1 days).
Assay [4] has as its system Achaea janata. As to the kind of experiment: Insecticidal activity against Achaea janata assessed as pupal duration at 2 ug/larva administered through topical application (reference value: 10.3 +/- 0.1 days).
Assay [5] relates to Achaea janata. As to the kind of experiment: Insecticidal activity against Achaea janata assessed as adult deformity at 4 ug/larva administered through topical application.
Assay [6] deals with Achaea janata. As to the kind of experiment: Insecticidal activity against Achaea janata assessed as pupal mortality at 2 ug/larva administered through topical application.
The subject of assay [7] is Achaea janata. As to the kind of experiment: Insecticidal activity against Achaea janata assessed as larval mortality at 0.2 ug/larva administered through topical application.
Assay [8] deals with Achaea janata. As to the kind of experiment: Insecticidal activity against Achaea janata assessed as adult emergence at 4 ug/larva administered through topical application (reference value: 98.8 +/- 0.5 %).
Assay [9] has as its system Achaea janata. As to the kind of experiment: Insecticidal activity against Achaea janata assessed as pupal mortality at 4 ug/larva administered through topical application.
The subject of assay [10] is Achaea janata. Description: Antifeedant activity against Achaea janata by conventional no-choice disk method.
Assay [11] relates to Achaea janata. Description: Insecticidal activity against Achaea janata assessed as adult emergence at 2 ug/larva administered through topical application (reference value: 98.8 +/- 0.5 %).
Assay [12] has as its system Achaea janata. As to the kind of experiment: Insecticidal activity against Achaea janata assessed as adult deformity at 2 ug/larva administered through topical application.
The test system of assay [13] is Achaea janata. As to the kind of experiment: Insecticidal activity against Achaea janata assessed as pupal weight at 2 ug/larva administered through topical application (reference value: 696.4 +/- 2.6 mg).
Assay [14] has as its system Achaea janata. As to the kind of experiment: Antifeedant activity against Achaea janata at 1.25 ug/cm2 by conventional no-choice disk method.
For assay [15], the system named is Achaea janata. As to the kind of experiment: Insecticidal activity against Achaea janata assessed as pupal weight at 4 ug/larva administered through topical application (reference value: 696.4 +/- 2.6 mg).

Broadly, the mortality is the percentage killed.

The structures appear in SMILES notation.

The compound `C/C=C(\C)C(=O)O[C@H]1C[C@@H](OC(C)=O)[C@@]2(C(=O)OC)CO[C@H]3[C@@H](O)[C@@](C)([C@]45O[C@@]4(C)[C@@H]4C[C@H]5O[C@@H]5OC=C[C@@]54O)[C@H]4[C@]1(CO[C@]4(O)C(=O)OC)[C@@H]32` [AZADIRACHTIN A] registered an LD50 in [1] of 0.67 microg/cm2. In addition, the Activity in assay [2] was determined as 100%; in [5] it was 0%; in [8] it was 98.8%; in assay [11], 98.8%; in assay [12], 0%; in assay [13], 696.4 mg. Further, the Activity in [15] was 696.4 mg. In addition, the Time in assay [3] and in assay [4] was 10.3 days in each case. The mortality is on record as 0% in assay [6], 100% in [7] and 0% in assay [9]. In assay [10], this compound gave an ED50 of 0.72 microg/cm2. Moreover, in assay [14], the AFI was found to be 100%.

(Values after ChEMBL document CHEMBL3045557, “A new benzil derivative from Derris scandens: Structure-insecticidal activity study” (2010).)
